Source: publication PMC8122397, “Synthesis of New Triazolopyrazine Antimalarial Compounds” (Molecules, 2021)
Read-outs that look alike come from different tables or passages of the source. Each block holds one compound with its values, some of them ahead of it.

What was measured:
[1] = tested on: Plasmodium falciparum 3D7 (chloroquine-sensitive strain); assay: In vitro anti-plasmodial image-based asexual assay, 3D7 strain; format: cell-based; conditions: for IC50 / inhibition at 80 µM: 3D7 strain; for IC50: 72 h; for inhibition at 80 µM: top dose of 80 µM, read-out: Pf 3D7 inhibition at the top dose
Experimental: (§1) The semisynthesized/functionalized triazolopyrazine compounds and the scaffold triazolopyrazine precursors, compounds 1–18, were tested for their antimalarial activity against the 3D7 (chloroquine-sensitive strain) and Dd2 (chloroquine, pyrimethamine, and mefloquine resistant strain) P. falciparum. Where an accurate IC50 value could not be determined due to 100% growth inhibition and a plateau not being reached, but where ≥90% growth inhibition was attained at the top screening concentration, an estimated IC50 value was calculated.
(§2) Plsamodium falciparum 3D7 and Dd2 parasites were cultured in RPMI1640 (Life Technologies, Camarillo, CA, USA) supplemented with 2.5 mg/mL Albumax II, 5% AB human serum, 25 mM HEPES, and 0.37mM hypoxanthine. Ring stage parasites were treated with compounds following two rounds of sorbitol synchronization, as previously described. Artesunate and pyrimethamine were incorporated as controls. Following incubation of assay plates for 72 h at 37 °C, and 5% CO2 and 5% O2, parasites were stained with 2-(4-amidinophenyl)-1H-indole-6-carboxamidine (DAPI) and imaged using an Opera QEHS confocal imaging system (PerkinElmer, Waltham, MA, USA). Images were analyzed, as previously described, using Acapella spot detection software (PerkinElmer, Waltham, MA, USA).
(§3) Normalizing of raw data used the in-plate positive (5 μM puromycin 100% inhibition) and negative (0.4% DMSO–no inhibition) controls to obtain percent inhibition and then used to calculate IC50 values through a 4 parameter logistic curve fitting in GraphPad Prism v.6.

[2] = tested on: Plasmodium falciparum Dd2 (chloroquine, pyrimethamine, and mefloquine drug-resistant strain); assay: In vitro anti-plasmodial image-based asexual assay, Dd2 strain; format: cell-based; conditions: for IC50 / inhibition at 80 µM: Plasmodium falciparum, Dd2 strain; for IC50: 72 h; for Dd2 potency compared to the 3D7 results, in words: Dd2 versus 3D7; for inhibition at 80 µM: top dose of 80 µM, read-out: Pf Dd2 inhibition at the top dose
Experimental: as §1, §2, §3

Pf 3D7 = conditions: cited from earlier work
[3] = tested on: Plasmodium falciparum (Pf); parameters: method as in earlier work; conditions: OSM master compounds' list; read-out: Pf activity IC50, previously reported OSM data; cited from earlier work
[4] = Plasmodium falciparum, 3D7, 72 h, controls, read-out: Pf 3D7 IC50 ± SD (controls)
[5] = controls, read-out: Pf Dd2 IC50 ± SD (controls)
[6] = estimated IC50 as only ~90% inhibition reached at the top dose of 80 µM, read-out: Pf 3D7 IC50 ± SD (estimated, footnote d)
[7] = Plasmodium falciparum, 3D7, 72 h, estimated IC50 as only ~90% inhibition reached at the top dose of 80 µM, read-out: Pf 3D7 IC50 ± SD (estimated, footnote d)
[8] = in vitro, read-out: IC50 (Pf 3D7), Figure 1
[9] = Plasmodium falciparum, 3D7, 72 h, read-out: Pf 3D7 IC50 ± SD

- IC50 [1, 4]: 0.00348 ± 0.00014 µM
- IC50 [2, 5]: 0.002 ± 0.0001 µM
SMILES: C[C@H]1[C@H](OC(=O)CCC(=O)O)O[C@@H]2O[C@@]3(C)CC[C@H]4[C@H](C)CC[C@@H]1[C@@]24OO3 [Artesunate, reference compound]

- IC50 [1, 6]: 16.8 ± 1.25 µM
- IC50 [1, 7]: 16.8 µM
- IC50 ([2]; read-out: Pf Dd2 IC50 ± SD): 22.8 ± 13.7 µM
SMILES: FC(F)Oc1ccc(-c2nnc3cncc(Cl)n23)cc1 [Compound 1]

- IC50 ([1]; read-out: Pf 3D7 IC50 ± SD): 0.31 ± 0.01 µM
- IC50 [1, 9]: 0.3 µM
- IC50 ([2]; read-out: Pf Dd2 IC50 ± SD): 0.54 ± 0.02 µM
SMILES: FC(F)Oc1ccc(-c2nnc3cncc(OCCc4ccccc4)n23)cc1 [Compound 2, 3-[4-(Difluoromethoxy)phenyl]-5-(2-phenylethoxy)-[1,2,4]triazolo[4,3-α]pyrazine]
- IC50 (Pf 3D7; [8]): 0.3 µM
- IC50 (Pf 3D7; read-out: IC50 against Pf 3D7, previously reported): 0.301 µM

- melting point: 169 to 170 °C
- IC50 ([1]; read-out: Pf 3D7 IC50 ± SD): 16.6 ± 1.02 µM
- IC50 [1, 9]: 16.7 µM
- IC50 ([2]; read-out: Pf Dd2 IC50 ± SD): 21.2 ± 5.41 µM
SMILES: FC(F)Oc1ccc(-c2nnc3cncc(OCC(F)(F)F)n23)cc1 [Compound 3, 3-[(4-Difluoromethoxy)phenyl]-5-(2,2,2,-trifluroethoxy)-[1,2,4]triazolo[4,3-α]pyrazine]
- IC50 [3]: 10 µM

SMILES: Oc1nccn2c(-c3ccc(OC(F)F)cc3)nnc12 [Compound 4, 3-[4-(Difluoromethoxy)phenyl]-[1,2,4]triazolo[4,3-α]pyrazin-8-ol]
- inhibition at 80 µM ([1]; Plasmodium falciparum): < 41%

SMILES: C[Si](C)(C)CCOc1cncc2nnc(-c3ccc(OC(F)F)cc3)n12 [Compound 5]
- melting point: 135 °C
- IC50 [1, 9]: 13.9 ± 0.87 µM
- Dd2 potency compared to the 3D7 results, in words [2]: large decreases in potency

SMILES: C[Si](C)(C)CCOc1nccn2c(-c3ccc(OC(F)F)cc3)nnc12 [Compound 6, 3-[4-(Difluoromethoxy)phenyl]-8-[2-(trimethylsilyl)ethoxy)-[1,2,4]triazolo[4,3-α]pyrazine]
- inhibition at 80 µM ([1]; Plasmodium falciparum): < 41%

- IC50 [1, 9]: 12.6 µM
- IC50 ([2]; read-out: Pf Dd2 IC50 ± SD): 14.3 ± 0.62 µM
SMILES: Clc1ccc(-c2nnc3cncc(Cl)n23)cc1 [Compound 7]

- IC50 [1, 7]: 19.2 ± 0.28 µM
- IC50 ([2]; read-out: Pf Dd2 IC50 ± SD): 32.4 ± 1.44 µM
SMILES: Cc1ncc(Cl)n2c(-c3ccc(Cl)cc3)nnc12 [Compound 8, 5-Chloro-3-(4-chlorophenyl)-8-methyl-[1,2,4]triazolo[4,3-α]pyrazine]

- IC50 [1, 6]: 18.9 ± 0.66 µM
- IC50 [1, 7]: 18.9 µM
- IC50 ([2]; read-out: Pf Dd2 IC50 ± SD): 25.9 ± 0.74 µM
SMILES: N#Cc1ccc(-c2nnc3cncc(Cl)n23)cc1 [Compound 9]

- IC50 [1, 7]: 27.3 ± 0.82 µM
- IC50 ([2]; read-out: Pf Dd2 IC50 ± SD): 38.2 ± 0.61 µM
SMILES: Cc1ncc(Cl)n2c(-c3ccc(C#N)cc3)nnc12 [Compound 10, 4-(5-Chloro-8-methyl-1,2,4-triazolo[4,3-α]pyrazin-3-yl)benzonitrile]

- IC50 ([1]; read-out: Pf 3D7 IC50 ± SD): 12.5 ± 0.58 µM
- IC50 [1, 9]: 12.5 µM
- IC50 ([2]; read-out: Pf Dd2 IC50 ± SD): 31.2 ± 0.82 µM
SMILES: Cc1ncc(Cl)n2c(-c3ccc(OC(F)F)cc3)nnc12 [Compound 11, 5-Chloro-3-[(4-difluoromethoxy)phenyl]-8-methyl-[1,2,4]triazolo[4,3-α]pyrazine]
- Dd2 potency compared to the 3D7 results, in words [2]: large decreases in potency

SMILES: Cc1ncc(OCC(F)(F)F)n2c(-c3ccc(OC(F)F)cc3)nnc12 [Compound 12, 3-[4-(Difluoromethoxy)phenyl]-8-methyl-5-(2,2,2-trifluoroethoxy)-[1,2,4]triazolo[4,3-a]pyrazine]
- growth inhibition at the top screening concentration ([1]; 3D7, predicted IC50 value not calculated): < 90%
- Dd2 potency compared to the 3D7 results, in words [2]: large decreases in potency
- inhibition at 80 µM [2]: < 41%

- IC50 [1, 6]: 11 ± 0.56 µM
- IC50 [1, 7]: 11.1 µM
- IC50 ([2]; read-out: Pf Dd2 IC50 ± SD): 8.2 ± 0.6 µM
SMILES: Cc1ncc(OCCc2ccccc2)n2c(-c3ccc(OC(F)F)cc3)nnc12 [Compound 13, 3-[4-(Difluoromethoxy)phenyl]-8-methyl-5-(2-phenylethoxy)-[1,2,4]triazolo[4,3-a]pyrazine]
- fold decrease in potency on methylation ([1]; 3D7, compared with compound 2): 37 fold
- Dd2 potency compared to the 3D7 results, in words [2]: slight increase in potency

- IC50 [1, 9]: 4.84 ± 0.13 µM
- IC50 ([2]; read-out: Pf Dd2 IC50 ± SD): 6.18 ± 0.09 µM
SMILES: FC(F)(F)c1ncc(Cl)n2c(-c3ccc(Cl)cc3)nnc12 [Compound 14, 5-Chloro-3-(4-chlorophenyl)-8-(trifluoromethyl)-[1,2,4]triazolo[4,3-α]pyrazine]

- IC50 ([1]; read-out: Pf 3D7 IC50 ± SD): 1.72 ± 0.02 µM
- IC50 [1, 9]: 1.7 µM
- IC50 ([2]; read-out: Pf Dd2 IC50 ± SD): 2.58 ± 0.07 µM
SMILES: CC(F)(F)c1ncc(Cl)n2c(-c3ccc(Cl)cc3)nnc12 [Compound 15, 5-Chloro-3-(4-chlorophenyl)-8-(1,1-difluoroethyl)-[1,2,4]triazolo[4,3-a]pyrazine]
- fold improvement in potency compared to the parent scaffold ([1]; 3D7, compared with scaffold 7): 7.3 fold

- IC50 [1, 9]: 6.4 ± 0.1 µM
- IC50 ([2]; read-out: Pf Dd2 IC50 ± SD): 24.7 ± 0.15 µM
SMILES: CC(F)(F)c1nccn2c(-c3ccc(Cl)cc3)nnc12 [Compound 16, 3-(4-Chlorophenyl)-8-(1,1-difluoroethyl)-[1,2,4]triazolo[4,3-a]pyrazine]
- Dd2 potency compared to the 3D7 results, in words [2]: large decreases in potency

- IC50 [1, 7]: 20.2 ± 2.86 µM
SMILES: FC1(F)CCC(c2ncc(Cl)n3c(-c4ccc(Cl)cc4)nnc23)CC1 [Compound 17, 5-Chloro-3-(4-chlorophenyl)-8-(4,4-difluorocyclohexyl)-[1,2,4]triazolo[4,3-a]pyrazine]
- antimalarial activity in words ([1]; 3D7): limited activity
- Dd2 potency compared to the 3D7 results, in words [2]: large decreases in potency
- inhibition at 80 µM [2]: < 41%

- melting point: 203 to 205 °C
SMILES: FC1(F)CCC(c2nccn3c(-c4ccc(Cl)cc4)nnc23)CC1 [Compound 18, 3-(4-Chlorophenyl)-8-(4,4-difluorocyclohexyl)-[1,2,4]triazolo[4,3-a]pyrazine]
- antimalarial activity in words ([1]; 3D7): limited activity
- inhibition at 80 µM ([1]; Plasmodium falciparum): < 41%

SMILES: OCC(COc1cncc2nnc(-c3ccc(OC(F)F)cc3)n12)c1ccccc1 (stereo not shown) [OSM-LO-13]
- IC50 (Pf 3D7; [8]): 0.279 µM

SMILES: Fc1ccc([C@@H](COc2cncc3nnc(-c4ccc(OC(F)F)cc4)n23)OC(F)F)cc1F [OSM-S-377]
- IC50 (Pf 3D7; [8]): 0.016 µM

SMILES: OC(COc1cncc2nnc(-c3ccc(OC(F)F)cc3)n12)c1ccc(F)c(F)c1 (stereo not shown) [OSM-S-390]
- IC50 (Pf 3D7; [8]): 0.07 µM

- IC50 [1, 4]: 0.0953 ± 0.00145 µM
- IC50 [2, 5]: 0.101 ± 0.0028 µM
SMILES: COc1ccc(C[C@H](N)C(=O)N[C@H]2[C@@H](O)[C@H](n3cnc4c(N(C)C)ncnc43)O[C@@H]2CO)cc1 [Puromycin, reference compound]

- IC50 [1, 4]: 0.01208 ± 4e-05 µM
SMILES: CCc1nc(N)nc(N)c1-c1ccc(Cl)cc1 [Pyrimethamine, reference compound]
- inhibition at 80 µM [2]: < 41%
